The subject of series [1] is Mmp-2, Mmp-9, Mmp-13, Plat. Put plainly: Mmp and Plat expression in protein treated C57BL/6J eyes not exposed to steroids (Example 15). Conditions: C57BL/6J not exposed to steroids. In kind it is in vivo, mouse.
For a further series, the system named is PlatKO mice. Put plainly: Outflow facility in protein treated PlatKO mouse eyes (Example 14). Conditions: intravitreal protein. The series is classed as in vivo. As for the experimental part: (§1) PlatKO and Mmp-9KO mice were also not given steroids prior to protein injections (FIG. 10c). Within each cohort, animals were divided into two groups:
(§2) 1) Animals that received unilateral intravitreal injection with 2 μl of tPA (5 μg/μl, Actilyse; Boehringer Ingelheim, Ingelheim am Rhein, Germany) while the contralateral eye received 2 μl of BSA (5 μg/μl; Gold Biotechnology, St Louis, Mo., USA), and 2) Animals that received unilateral intravitreal injections with 2 μl of non-enzymatically active tPA (NE-tPA/S478A-tPA) (5 μg/μl; Innovative Research, Novi, Mich., USA) while the contralateral eye received 2 μl of BSA. Animals were euthanized two days after intravitreal injection.
(§3) Outflow facility determination: Mouse eyes were enucleated immediately after euthanasia. Outflow facility was determined using a constant pressure method, as previously described. Pressure was raised in steps of 4 cmH2O, from 8 cmH2O (5.88 mmHg) to 32 cmH2O (23.54 mmHg) by increasing the height of a column of fluid of BSS. Steady state was initially achieved after 10 minutes. […] Flow was constantly measured via a microfluidic flow sensor (0.07-1.5 uL/min, MFS1; Elveflow, Paris, France). […] Any eyes that developed visible leaks during outflow facility determination, or that had pressure-flow correlations with R^2<0.9, were excluded from analysis but were used for RNA quantification.

Series [2] has as its system sheep of the Corriedale breed. Put plainly: Steroid-induced IOP elevation in sheep, intravitreal tPA (Examples 3, 4). In kind it is in vivo. As for the experimental part:
Protocol 1. 8 sheep of the Corriedale breed were treated with prednisolone acetate three times a day in both eyes, leading to elevated IOP. After one week, the animals received intravitreal injections of human recombinant tPA (100, 200, 500 and 1000 μg, two animals each) dissolved in balanced salt solution (BSS) in one eye. IOP was monitored for 19 more days while the animals continued to receive treatment with prednisolone. Periodic slit lamp examination was also performed.
Protocol 2. In a second set of experiments, arginine was added to the BSS vehicle administered to the left eye to control for the relatively high concentration of the amino acid in the commercially available tPA lyophilisate. In these experiments all right eyes received 0.1 mg tPA, which concomitantly delivered 4.23 mg of arginine into the vitreous, and the left eye received this same amount of arginine, absent the tPA. On Day 1, prednisolone treatments were also begun simultaneously on both eyes.
Methods. In this experiment, the inventor sought to detect the effects of tPA treatment on prevention of steroid-induced IOP elevation. In 4 sheep tPA was injected in one eye (100 μg) and they were started on prednisolone acetate three times a day in both eyes. Animals were monitored for 11 days on continuous treatment.

Another series concerns Tg-MYOCY437H mice. Put plainly: Outflow facility in Tg-MYOCY437H mouse eyes (Example 19). In kind it is in vivo. As for the experimental part: To investigate whether corticosteroids affect outflow facility in Tg-MYOCY437H mice, animals received bilateral injections (20 μl) with either triamcinolone acetonide (TA) (40 mg/ml, Kenalog-40; Bristol-Myers Squibb, NY, USA) suspension or phosphate-buffered saline (PBS) (Gibco, ThermoFisher Scientific, Waltham, Mass., USA) subconjunctivally using a 100 μL Hamilton syringe with a 26-gauge needle (Precision Glide, Becton Dickinson & CO, Franklin Lakes, N.J., USA). They were euthanized one week later for outflow facility measurement.
To investigate whether tPA can affect outflow facility in Tg-MYOCY437H mice, and determine whether tPA enzymatic action is necessary for such an effect, intravitreal injections were performed using a 10 μL Hamilton syringe with 36-gauge stainless steel needles (WPI Inc, Sarasota, Fla., USA). […] Animals were sacrificed either two or five days after intravitreal injections for outflow facility measurement. […]
Mouse eyes were enucleated immediately after euthanasia. Outflow facility was determined using a microfluidic flow sensor (0.07-1.5 uL/min, MFS1; Elveflow, Paris, France) and constant pressure method, as previously described (Hu, Barron et al. 2019). […] Any eyes that developed visible leaks or that had pressure-flow correlations with […] were excluded from analysis but were used for RNA quantification.

Series [3] has as its system C57BL/6J mice. Put plainly: Outflow facility in protein treated C57BL/6J eyes not exposed to steroids (Example 15). The series is classed as in vivo, mouse. Conditions: C57BL/6J not exposed to steroids, intravitreal protein. As for the experimental part: (§4) 1) Animals receiving bilateral steroid (TA) injection subconjunctivally five days prior to protein injection (FIG. 10b) and 2) Animals not receiving subconjunctival steroids (FIG. 10c).
as §2, §3

The subject of another series is Mmp-9KO mice. Nature of the series: Outflow facility in protein treated Mmp-9KO mouse eyes (Example 16). The series is classed as in vivo. Conditions: intravitreal protein, p>0.05. As for the experimental part: as §1, §2, §3
The subject of series [4] is C57BL/6J mice. Nature of the series: Outflow facility in TA and protein treated C57BL/6J mouse eyes (Example 13). The series is classed as in vivo. Conditions: TA five days before intravitreal protein (2 μl, 5 μg/μl); two days after injection. As for the experimental part:
C57BL/6J mice were divided into two groups:
as §4, §2
as §3, with “BSS.” for “BSS. Steady state was initially achieved after 10 minutes.”

For series [5], the system named is Mmp-2, Mmp-9, Mmp-13. Put plainly: Mmp expression in TA and protein treated C57BL/6J eyes (Example 13). In kind it is in vivo, mouse. Conditions: vs BSA treated controls.
Series [6] relates to MMP-2, MMP-9, MMP-13. Nature of the series: MMP expression in PA treated HTM cells (Examples 17, 18). The series is classed as cell-based. Conditions: PA treated HTM cells.
The conditions of series [7]: intravitreal use; toxicity attributed to arginine in commercial preparations; cited from earlier work.

Here are results for 1 substance from patent publication US20210220450A1, “TREATMENT OF AN IOP CONDITION” (The Research Foundation for The State University of New York, priority 2013, published 2021).

In the case of tissue plasminogen activator [tPA], the “endogenous Plat expression” value in series [1] was “did not cause significant changes”. The “gene expression changes in Mmp-2, Mmp-9 and Mmp-13” value in [1] (vs BSA) is “not significantly different”. Besides, the “increase in outflow facility compared to BSA treated eyes” value in the series with PlatKO mice amounted to 46%. The “outflow facility, mean±standard deviation” value is 89±27×10^−5 μl/min/mmHg with PlatKO mice (no steroid, two days); 102.7±19.5×10^−5 μl/min/mmHg in the series with C57BL/6J mice [3]; 105.3±35.8×10^−5 μl/min/mmHg in the series with C57BL/6J mice [4]. Besides, in series [2] (100 μg in one eye, concurrent with prednisolone, 11 days), the “prevention of steroid-induced IOP elevation” value is reported as “prevented IOP elevation”. The ocular observations result in series [2] (intravitreal tPA, prednisolone-treated sheep, some eyes) was “Transient injection and corneal clouding”. Further, the “IOP after tPA” value in [2] (within 24 h, all intravitreal doses tested (100-1000 μg), prednisolone continued) is reported as 14.1(±1.1) mmHg. In the series with Tg-MYOCY437H mice, the “improvement of outflow facility” value is around 31%. For the same substance, in the series on Mmp-9KO mice, the “effect on outflow facility” value was “did not increase”. Further, in the series with Mmp-2, Mmp-9, Mmp-13 [5], the “Mmp-2, Mmp-9 and Mmp-13 expression” value is on record as “significant upregulation”. In addition, the MMP-2 expression entry in the series on MMP-2, MMP-9, MMP-13 [6] (between treatments) was “not significantly different”. Further, the “expression (FIG. 17C, MMP-9)” value with MMP-2, MMP-9, MMP-13 [6] (vs PA+BSA) is “significant upregulation”. Further, in series [7], the “doses with reported retinal toxicity” value is 50 to 100 µg.
